According to ChEMBL document CHEMBL5465560, “Selectivity Literature for EUbOPEN Chemogenomic Library” (2024):
Each block holds one molecule with its values, some of them ahead of it.

Key:
[1] = target: G protein-coupled receptor kinase 6 (Homo sapiens) (UniProt P43250); experiment: Selectivity interaction (Kinase panel (Z-LYTE Assay)) EUB0001632a GRK6; conditions: at 10 µM
[2] = target: Serine/threonine-protein kinase 26 (Homo sapiens, UniProt Q9P289); experiment: Selectivity interaction (Kinase panel (DSF assay)) EUB0001559a STK26
[3] = target: High affinity nerve growth factor receptor (Homo sapiens, UniProt P04629); experiment: Selectivity interaction (KinomeScan (DiscoverX)) EUB0001049a NTRK1; conditions: at 1 µM
[4] = target: T1, Muscle, skeletal receptor tyrosine-protein kinase (Homo sapiens) (UniProt O15146); experiment: Selectivity interaction (KinomeScan (DiscoverX)) EUB0001049a MUSK; conditions: at 1 µM
T1 sequence (whole entry): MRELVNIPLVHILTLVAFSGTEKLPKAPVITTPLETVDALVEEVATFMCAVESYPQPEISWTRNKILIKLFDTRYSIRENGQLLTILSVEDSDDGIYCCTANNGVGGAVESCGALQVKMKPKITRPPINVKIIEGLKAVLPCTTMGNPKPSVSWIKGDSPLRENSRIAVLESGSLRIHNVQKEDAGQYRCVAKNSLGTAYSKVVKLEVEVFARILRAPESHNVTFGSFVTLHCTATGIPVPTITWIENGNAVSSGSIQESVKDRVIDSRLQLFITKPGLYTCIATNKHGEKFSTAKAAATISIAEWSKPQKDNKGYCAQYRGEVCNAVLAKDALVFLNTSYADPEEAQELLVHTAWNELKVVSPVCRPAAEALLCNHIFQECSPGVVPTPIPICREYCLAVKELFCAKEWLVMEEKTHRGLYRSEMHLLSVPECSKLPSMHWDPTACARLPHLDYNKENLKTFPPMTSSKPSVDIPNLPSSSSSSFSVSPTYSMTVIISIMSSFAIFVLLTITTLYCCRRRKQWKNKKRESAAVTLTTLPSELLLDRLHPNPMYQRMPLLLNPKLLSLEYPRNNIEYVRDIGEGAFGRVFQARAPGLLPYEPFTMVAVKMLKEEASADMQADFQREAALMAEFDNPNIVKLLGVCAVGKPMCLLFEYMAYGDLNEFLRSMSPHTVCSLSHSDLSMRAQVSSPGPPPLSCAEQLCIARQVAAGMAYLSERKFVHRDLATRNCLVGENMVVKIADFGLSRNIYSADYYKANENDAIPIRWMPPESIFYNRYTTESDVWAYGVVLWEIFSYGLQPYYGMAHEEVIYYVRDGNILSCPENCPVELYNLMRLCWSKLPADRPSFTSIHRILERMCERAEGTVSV

[5] = target: Sodium-dependent serotonin transporter (Homo sapiens, UniProt P31645); experiment: Selectivity interaction (Panel of kinases, GPCRs, ion channels and transporters (enzymatic assay)) EUB0000223bCl SLC6A4
Sequence of Sodium-dependent serotonin transporter (P31645 whole entry, looked up): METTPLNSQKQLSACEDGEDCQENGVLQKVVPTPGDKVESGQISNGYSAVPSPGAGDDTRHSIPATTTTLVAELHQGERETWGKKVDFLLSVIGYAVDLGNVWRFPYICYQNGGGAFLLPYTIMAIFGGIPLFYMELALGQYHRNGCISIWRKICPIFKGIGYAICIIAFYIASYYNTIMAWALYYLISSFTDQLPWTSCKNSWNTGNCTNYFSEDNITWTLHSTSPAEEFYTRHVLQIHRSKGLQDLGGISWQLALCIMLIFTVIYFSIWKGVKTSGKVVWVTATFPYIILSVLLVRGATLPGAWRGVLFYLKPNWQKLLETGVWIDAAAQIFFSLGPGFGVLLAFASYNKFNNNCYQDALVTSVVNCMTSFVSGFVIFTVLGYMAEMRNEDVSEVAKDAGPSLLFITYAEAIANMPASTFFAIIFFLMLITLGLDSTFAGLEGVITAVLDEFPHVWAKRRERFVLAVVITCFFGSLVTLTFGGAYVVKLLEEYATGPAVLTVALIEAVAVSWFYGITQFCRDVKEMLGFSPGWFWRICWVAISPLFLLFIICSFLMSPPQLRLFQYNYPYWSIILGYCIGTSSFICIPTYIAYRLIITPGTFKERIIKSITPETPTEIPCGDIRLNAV

[6] = target: Calcium/calmodulin-dependent protein kinase type II subunit beta (Homo sapiens) (UniProt Q13554); experiment: Selectivity interaction (KinomeScan (DiscoverX)) EUB0000045b CAMK2B
Sequence of Calcium/calmodulin-dependent protein kinase type II subunit beta (Homo sapiens) (Q13554 whole entry, canonical isoform): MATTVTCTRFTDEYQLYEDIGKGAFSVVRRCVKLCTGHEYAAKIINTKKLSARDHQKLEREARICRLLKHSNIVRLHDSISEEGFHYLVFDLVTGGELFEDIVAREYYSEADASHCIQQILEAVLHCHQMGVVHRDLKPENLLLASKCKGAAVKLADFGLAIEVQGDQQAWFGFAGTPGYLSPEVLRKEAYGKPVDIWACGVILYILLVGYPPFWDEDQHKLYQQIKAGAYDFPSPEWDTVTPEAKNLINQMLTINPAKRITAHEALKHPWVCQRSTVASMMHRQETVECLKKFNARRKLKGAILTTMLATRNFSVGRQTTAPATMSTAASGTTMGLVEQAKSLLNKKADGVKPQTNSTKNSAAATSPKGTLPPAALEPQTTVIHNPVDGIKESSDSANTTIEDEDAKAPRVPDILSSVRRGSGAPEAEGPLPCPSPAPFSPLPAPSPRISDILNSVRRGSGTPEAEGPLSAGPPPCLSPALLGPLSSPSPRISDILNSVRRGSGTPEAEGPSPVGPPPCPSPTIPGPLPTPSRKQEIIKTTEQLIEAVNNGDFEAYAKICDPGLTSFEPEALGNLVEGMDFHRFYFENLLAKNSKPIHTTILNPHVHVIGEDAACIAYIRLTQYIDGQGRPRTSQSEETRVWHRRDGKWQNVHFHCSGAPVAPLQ

[7] = target: Phosphatidylinositol 4,5-bisphosphate 3-kinase catalytic subunit beta isoform (Homo sapiens) (UniProt P42338); experiment: Selectivity interaction (KinomeScan (DiscoverX)) EUB0000045b PIK3CB
Sequence of Phosphatidylinositol 4,5-bisphosphate 3-kinase catalytic subunit beta isoform (Homo sapiens) (P42338 whole entry, looked up, canonical isoform): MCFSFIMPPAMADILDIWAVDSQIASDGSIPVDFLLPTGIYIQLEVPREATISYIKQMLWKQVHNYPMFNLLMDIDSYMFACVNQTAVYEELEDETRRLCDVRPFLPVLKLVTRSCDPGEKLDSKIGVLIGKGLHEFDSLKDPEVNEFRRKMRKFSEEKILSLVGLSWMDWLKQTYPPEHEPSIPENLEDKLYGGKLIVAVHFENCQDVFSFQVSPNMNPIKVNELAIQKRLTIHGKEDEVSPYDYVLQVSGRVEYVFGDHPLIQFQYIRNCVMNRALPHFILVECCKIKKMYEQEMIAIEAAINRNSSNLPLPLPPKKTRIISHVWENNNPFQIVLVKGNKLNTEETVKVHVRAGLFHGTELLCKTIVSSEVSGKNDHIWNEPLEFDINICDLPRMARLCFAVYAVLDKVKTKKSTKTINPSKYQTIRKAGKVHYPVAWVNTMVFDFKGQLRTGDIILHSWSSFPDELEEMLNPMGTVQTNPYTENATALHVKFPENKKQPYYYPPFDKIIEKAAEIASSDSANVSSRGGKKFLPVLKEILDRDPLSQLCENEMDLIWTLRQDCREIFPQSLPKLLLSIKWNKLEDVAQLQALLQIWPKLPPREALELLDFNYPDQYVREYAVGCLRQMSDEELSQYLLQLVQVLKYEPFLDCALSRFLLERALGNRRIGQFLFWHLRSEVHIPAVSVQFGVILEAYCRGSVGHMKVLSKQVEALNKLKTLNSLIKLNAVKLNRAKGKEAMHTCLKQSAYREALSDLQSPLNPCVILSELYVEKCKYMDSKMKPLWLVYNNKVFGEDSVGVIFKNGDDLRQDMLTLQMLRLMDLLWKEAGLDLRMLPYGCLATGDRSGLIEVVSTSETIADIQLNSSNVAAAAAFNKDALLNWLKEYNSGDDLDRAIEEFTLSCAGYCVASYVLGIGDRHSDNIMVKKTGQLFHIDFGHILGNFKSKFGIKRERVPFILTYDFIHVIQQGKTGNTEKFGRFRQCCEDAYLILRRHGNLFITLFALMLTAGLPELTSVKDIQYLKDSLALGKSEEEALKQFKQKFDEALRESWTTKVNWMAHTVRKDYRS

[8] = target: Ephrin type-A receptor 4 (Homo sapiens, UniProt P54764); experiment: Selectivity interaction (KinomeScan (DiscoverX)) EUB0000045b EPHA4
Sequence of Ephrin type-A receptor 4 (P54764 whole entry): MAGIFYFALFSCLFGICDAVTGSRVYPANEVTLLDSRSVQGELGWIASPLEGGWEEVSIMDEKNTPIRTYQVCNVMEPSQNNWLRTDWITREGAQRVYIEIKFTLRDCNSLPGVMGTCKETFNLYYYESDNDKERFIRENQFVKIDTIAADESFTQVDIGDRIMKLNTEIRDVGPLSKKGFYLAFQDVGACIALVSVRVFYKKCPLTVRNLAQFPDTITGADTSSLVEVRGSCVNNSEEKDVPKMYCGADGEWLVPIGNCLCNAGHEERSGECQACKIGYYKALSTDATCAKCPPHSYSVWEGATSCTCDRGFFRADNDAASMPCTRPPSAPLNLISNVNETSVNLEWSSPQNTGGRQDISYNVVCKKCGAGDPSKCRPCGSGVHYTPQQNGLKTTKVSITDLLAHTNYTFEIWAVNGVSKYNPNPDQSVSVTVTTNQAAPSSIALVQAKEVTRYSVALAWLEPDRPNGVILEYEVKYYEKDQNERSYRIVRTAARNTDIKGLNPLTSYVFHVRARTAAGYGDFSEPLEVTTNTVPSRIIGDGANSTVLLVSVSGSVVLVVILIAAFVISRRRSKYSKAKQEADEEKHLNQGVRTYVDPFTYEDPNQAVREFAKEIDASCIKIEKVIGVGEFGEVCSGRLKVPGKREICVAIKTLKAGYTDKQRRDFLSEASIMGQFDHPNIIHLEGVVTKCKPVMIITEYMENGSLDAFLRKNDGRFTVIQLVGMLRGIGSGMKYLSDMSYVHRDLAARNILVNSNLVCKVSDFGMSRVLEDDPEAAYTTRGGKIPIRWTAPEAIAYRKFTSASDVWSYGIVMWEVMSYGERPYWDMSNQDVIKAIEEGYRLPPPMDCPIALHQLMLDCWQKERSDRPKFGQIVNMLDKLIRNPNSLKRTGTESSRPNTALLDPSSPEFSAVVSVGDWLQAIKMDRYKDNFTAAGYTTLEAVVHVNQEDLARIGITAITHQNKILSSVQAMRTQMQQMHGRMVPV

[9] = target: Aurora kinase B (Homo sapiens, UniProt Q96GD4); experiment: Selectivity interaction (KinomeScan (DiscoverX)) EUB0001079a AURKB; conditions: at 1 µM
Sequence of Aurora kinase B (Q96GD4 whole entry): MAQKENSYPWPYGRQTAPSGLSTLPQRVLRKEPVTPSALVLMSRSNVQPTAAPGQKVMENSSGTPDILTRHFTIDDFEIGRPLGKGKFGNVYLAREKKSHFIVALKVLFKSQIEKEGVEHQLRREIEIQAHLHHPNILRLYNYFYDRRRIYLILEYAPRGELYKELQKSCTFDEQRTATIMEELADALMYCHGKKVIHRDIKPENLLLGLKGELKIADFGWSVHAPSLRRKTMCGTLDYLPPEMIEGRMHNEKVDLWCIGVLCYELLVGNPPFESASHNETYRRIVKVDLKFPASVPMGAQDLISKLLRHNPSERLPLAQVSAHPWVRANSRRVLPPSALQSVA

[10] = target: T2, N-lysine methyltransferase KMT5A (Homo sapiens) (UniProt Q9NQR1); conditions: at 10 µM
T2 sequence (whole entry): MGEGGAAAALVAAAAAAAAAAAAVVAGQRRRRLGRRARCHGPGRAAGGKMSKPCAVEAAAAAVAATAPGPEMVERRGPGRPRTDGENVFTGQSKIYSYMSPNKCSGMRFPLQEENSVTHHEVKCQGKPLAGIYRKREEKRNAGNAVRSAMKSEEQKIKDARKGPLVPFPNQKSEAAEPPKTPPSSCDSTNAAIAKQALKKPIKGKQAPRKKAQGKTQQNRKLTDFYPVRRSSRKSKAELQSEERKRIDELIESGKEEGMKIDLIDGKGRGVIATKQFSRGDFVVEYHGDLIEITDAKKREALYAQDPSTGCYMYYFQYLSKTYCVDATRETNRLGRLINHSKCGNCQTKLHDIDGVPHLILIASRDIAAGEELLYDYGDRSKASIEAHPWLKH

[11] = target: Tudor domain-containing protein 3 (Homo sapiens) (UniProt Q9H7E2); experiment: Selectivity interaction (PWWP, WD40, and Tudor domain panel (DSLS measurements, literature)) EUB0000270b TDRD3
[12] = target: Macrophage-stimulating protein receptor (Homo sapiens, UniProt Q04912); experiment: Selectivity interaction (KinomeScan (DiscoverX)) EUB0000229b MST1R; conditions: at 10 µM
Sequence of Macrophage-stimulating protein receptor (Q04912 25-304 limits assumed): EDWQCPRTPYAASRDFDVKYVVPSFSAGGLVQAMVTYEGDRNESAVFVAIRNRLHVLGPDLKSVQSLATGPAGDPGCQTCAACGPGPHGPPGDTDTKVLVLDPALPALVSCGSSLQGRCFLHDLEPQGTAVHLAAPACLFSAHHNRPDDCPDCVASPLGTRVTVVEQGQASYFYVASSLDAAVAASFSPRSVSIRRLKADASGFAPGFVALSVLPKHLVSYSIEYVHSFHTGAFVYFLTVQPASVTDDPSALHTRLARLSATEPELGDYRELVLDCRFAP
Sequence of Macrophage-stimulating protein receptor (Q04912 310-1400 limits assumed): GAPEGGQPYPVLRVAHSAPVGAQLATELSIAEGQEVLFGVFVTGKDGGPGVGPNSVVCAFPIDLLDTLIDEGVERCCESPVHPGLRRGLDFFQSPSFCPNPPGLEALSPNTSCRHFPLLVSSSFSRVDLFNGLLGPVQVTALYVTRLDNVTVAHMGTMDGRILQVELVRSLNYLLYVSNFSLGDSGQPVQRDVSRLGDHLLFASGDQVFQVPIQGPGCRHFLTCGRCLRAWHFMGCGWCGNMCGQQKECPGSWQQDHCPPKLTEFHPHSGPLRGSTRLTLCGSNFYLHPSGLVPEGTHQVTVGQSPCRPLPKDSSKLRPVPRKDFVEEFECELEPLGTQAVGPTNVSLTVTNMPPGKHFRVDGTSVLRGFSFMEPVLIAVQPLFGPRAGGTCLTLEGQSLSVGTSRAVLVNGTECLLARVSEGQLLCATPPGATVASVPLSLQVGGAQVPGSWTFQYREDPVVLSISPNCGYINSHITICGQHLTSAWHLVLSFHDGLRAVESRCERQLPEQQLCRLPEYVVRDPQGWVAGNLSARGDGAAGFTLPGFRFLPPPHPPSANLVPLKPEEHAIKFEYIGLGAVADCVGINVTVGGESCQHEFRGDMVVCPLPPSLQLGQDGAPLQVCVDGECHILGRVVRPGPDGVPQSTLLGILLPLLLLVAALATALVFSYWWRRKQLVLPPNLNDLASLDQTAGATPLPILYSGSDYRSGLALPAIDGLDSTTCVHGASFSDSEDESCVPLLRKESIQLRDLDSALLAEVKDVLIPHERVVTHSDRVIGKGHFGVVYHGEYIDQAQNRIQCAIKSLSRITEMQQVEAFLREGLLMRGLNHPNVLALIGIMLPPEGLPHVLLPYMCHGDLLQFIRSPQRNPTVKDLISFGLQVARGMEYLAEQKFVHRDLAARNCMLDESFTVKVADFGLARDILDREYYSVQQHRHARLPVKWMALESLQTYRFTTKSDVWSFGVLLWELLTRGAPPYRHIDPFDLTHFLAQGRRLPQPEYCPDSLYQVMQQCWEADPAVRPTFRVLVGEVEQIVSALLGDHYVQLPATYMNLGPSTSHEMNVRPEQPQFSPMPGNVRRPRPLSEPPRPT

[13] = target: T3, Mitogen-activated protein kinase kinase kinase kinase 2 (Homo sapiens) (UniProt Q12851); experiment: Selectivity interaction (ActivX KiNativ screen (ex vivo kinase selectivity in human PBMCs)) EUB0001619a MAP4K2; type: cell-based; conditions: PBMC, at 1 µM
T3 sequence (whole entry): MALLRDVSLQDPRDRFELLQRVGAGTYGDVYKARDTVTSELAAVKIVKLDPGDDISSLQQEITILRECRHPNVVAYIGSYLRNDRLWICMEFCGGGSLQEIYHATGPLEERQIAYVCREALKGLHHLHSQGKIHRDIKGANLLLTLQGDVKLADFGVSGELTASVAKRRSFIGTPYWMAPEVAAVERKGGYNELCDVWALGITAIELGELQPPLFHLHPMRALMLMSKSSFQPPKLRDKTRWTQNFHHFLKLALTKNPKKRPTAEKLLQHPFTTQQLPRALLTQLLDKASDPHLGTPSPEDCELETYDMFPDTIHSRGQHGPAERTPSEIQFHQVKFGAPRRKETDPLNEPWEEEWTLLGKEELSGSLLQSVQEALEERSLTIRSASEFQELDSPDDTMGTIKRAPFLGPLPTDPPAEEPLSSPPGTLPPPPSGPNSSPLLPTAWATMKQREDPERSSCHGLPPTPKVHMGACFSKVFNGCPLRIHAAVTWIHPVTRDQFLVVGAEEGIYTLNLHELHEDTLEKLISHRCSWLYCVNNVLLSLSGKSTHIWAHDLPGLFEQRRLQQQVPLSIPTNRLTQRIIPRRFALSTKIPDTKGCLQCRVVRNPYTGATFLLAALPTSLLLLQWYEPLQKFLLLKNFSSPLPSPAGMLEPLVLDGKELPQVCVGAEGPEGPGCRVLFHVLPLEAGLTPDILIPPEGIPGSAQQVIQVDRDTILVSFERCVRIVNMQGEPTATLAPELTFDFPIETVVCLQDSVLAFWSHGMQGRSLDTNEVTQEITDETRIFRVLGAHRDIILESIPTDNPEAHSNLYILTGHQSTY

% of control [1]: -1.29%
SMILES: Cn1cc(-n2cnc3c(NCc4nc5cc(Cl)c(Cl)cc5[nH]4)nc(N4CCOCC4)nc32)cn1

dTM [2]: 0.5 K
SMILES: CN(C(=O)c1cnn2cccnc12)c1cc2c(cc1N1CCOCC1)C(=O)N(C[C@@H](F)C(C)(C)O)C2

SMILES: COc1cc(Nc2nc(C)cc(-c3cnn4nc(OC)ccc34)n2)cc(C(F)(F)F)c1
% of control [3]: 100%
% of control [4]: 100%

SMILES: COc1cc(C(=O)N2CC[C@@H](O)[C@@H](N)C2)cc2nc(-c3cc4ccccc4n3CC3CC3)n(C)c12
pXC50 [5]: 4.3 M

SMILES: C=CC(=O)Nc1cc(-n2c(=O)ccc3cnc4ccc(-c5ccc(NS(C)(=O)=O)cc5)cc4c32)ccc1C
% of control ([6]; at 1 µM): 100%
% of control ([6]; at 10 µM): 74%
% of control ([7]; at 1 µM): 75%
% of control ([7]; at 10 µM): 44%
% of control ([8]; at 1 µM): 89%
% of control ([8]; at 10 µM): 100%

SMILES: Nc1cnc(N2CCc3cc(S(=O)(=O)Nc4c(F)cc(Cl)cc4F)cc(N4CCCC4=O)c32)nc1 [TP-020n]
% of control [9]: 98%

% activity [10]: > 90%
SMILES: CNCCN1CCC(c2cc(CN(C)C(=O)c3cccc(Oc4ccccc4)c3)ccn2)CC1

dTagg [11]: 0.8 K
SMILES: Cc1cc(CN)cc(C)c1-c1ncn(C)c1-c1cncn1C

SMILES: COc1cc(N(C)c2ccnc3ccc(C(F)(F)F)cc23)cc(OC)c1OC
% binding [12]: 82%

SMILES: N#Cc1cccc(-c2c[nH]c3ncnc(N4CCOCC4)c23)c1
% of inhibition [13]: 24%
